Values after ≈ are worked out from the molar mass of the structure shown.
What was measured:
Staphylococcus sp. = experiment: in vitro antibacterial evaluation, MIC by broth dilution; type: cell-based; settings: broth dilution, 18 hours at 35° C.; for MIC Staphylococcus haemolyticus (GC 4546): strain GC 4546
Procedure, shortened: (§1)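 Read-out: the lowest concentration at which the test strain fails to grow. Serial dilutions (64-0.06 μg/mL) in Muller-Hinton II […], 5×10^5 CFU/mL inoculum, NCCLS M7-A2 procedure.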

Enterococcus sp. = experiment: as above; type: cell-based; settings: broth dilution, 18 hours at 35° C.
Procedure, shortened: as §1

Streptococcus sp. = experiment: as above; type: cell-based; settings: broth dilution, 18 hours at 35° C.
Procedure, shortened: as §1

[1] = anatomic pathology (histopathology of heart and kidney) in mice; type: in vivo; settings: CD-1 mice, 20 mg/kg intravenously daily for 9 days, necropsy day 10, microscopic histopathology
Procedure: Samples of tissues from necropsied mice were formalin-fixed, paraffin-embedded, sectioned, stained with hematoxylin and eosin, and examined microscopically. Histopathologic findings were recorded. These findings were subjectively graded on a scale corresponding to slight, mild, moderate, marked and severe as compared to untreated controls.

Escherichia coli = experiment: in vitro antibacterial evaluation, MIC by broth dilution; type: cell-based; settings: 18 hours at 35° C.
Procedure, shortened: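 Broth dilution MIC per NCCLS M7-A2 in Mueller-Hinton II medium, inoculum 5×10^5 CFU/mL, antibiotic range 64-0.06 μg/mL. MIC taken as lowest concentration inhibiting growth.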

Structure (SMILES)	MIC Staphylococcus haemolyticus (GC 4546) (Staphylococcus sp.) [µg/mL]	MIC Enterococcus avium (GC 4558) (Enterococcus sp.) [µg/mL]	MIC Enterococcus faecalis (ATCC 29212) (Enterococcus sp.) [µg/mL]	MIC Enterococcus faecalis (GC 2242) (Enterococcus sp.) [µg/mL]	MIC Enterococcus faecalis (GC 2691) (Enterococcus sp.) [µg/mL]	MIC Enterococcus faecalis (GC 3059) (Enterococcus sp.) [µg/mL]	MIC Enterococcus faecalis (GC 4552) (Enterococcus sp.) [µg/mL]	MIC Enterococcus faecalis (GC 4553) (Enterococcus sp.) [µg/mL]	MIC Enterococcus faecalis (GC 4554) (Enterococcus sp.) [µg/mL]	MIC Enterococcus faecalis (GC 6189) (Enterococcus sp.) [µg/mL]	MIC Enterococcus faecium (GC 2243) (Enterococcus sp.) [µg/mL]	MIC Enterococcus faecium (GC 4556) (Enterococcus sp.) [µg/mL]	MIC Enterococcus faecium (GC 4557) (Enterococcus sp.) [µg/mL]	MIC Streptococcus agalactiae (GC 4564) (Streptococcus sp.) [µg/mL]	MIC Streptococcus pneumoniae (ATCC 6301) (Streptococcus sp.) [µg/mL]	MIC Streptococcus pneumoniae (GC 1894) (Streptococcus sp.) [µg/mL]	MIC Streptococcus pneumoniae (GC 4565) (Streptococcus sp.) [µg/mL]	MIC Streptococcus pyogenes (GC 4563) (Streptococcus sp.) [µg/mL]	Anatomical Pathology (Day 10), Heart [1]	Anatomical Pathology (Day 10), Kidney [1]	further results
CC(c1ccccc1)C1NC(=O)CNC(=O)C(CO)NC(=O)C(C(O)C2CNC(=NCc3ccccc3)N2C2OC(CO)C(O)C(O)C2O)NC(=O)C(C(O)C2CNC(=N)N2)NC(=O)C(Cc2ccc(OC3OC(CO)C(OC4OC5COC6(OC5C(O)C4O)C4CC5CC(C4)CC6C5)C(O)C3O)cc2)NC1=O (stereo not drawn) [Example 76, Cyclo[glycyl-β-methylphenylalanyl-O-[4-O-[4,6-O-(2-adamantylidene)hexopyranosyl]hexopyranosyl]tyrosyl-3-(2-iminoimidazolidin-4-yl)seryl-3-[2-(benzylimino)-3-hexopyranosylimidazolidin-4-yl]serylseryl]]	2 to 4	2 to 8	4 to 16	4 to 16	4 to 16	4 to 32	4 to 16	4 to 8	4 to 32	4 to 16	2 to 8	4 to 16	1 to 2	0.25 to 2	<0.12 to 1	<0.06 to 0.25	0.25 to 4	0.25 to 2	0	++	MIC Staphylococcus aureus (ATCC 29213) (Staphylococcus sp.; strain ATCC 29213): 2 to 8 µg/mL; MIC Staphylococcus aureus (GC 1131) (Staphylococcus sp.; strain GC 1131): 4 to 8 µg/mL; MIC Staphylococcus aureus (GC 3051) (Staphylococcus sp.; strain GC 3051): 2 to 8 µg/mL; MIC Staphylococcus aureus (GC 3053) (Staphylococcus sp.; strain GC 3053): 2 to 8 µg/mL; MIC Staphylococcus aureus (GC 4541) (Staphylococcus sp.; strain GC 4541): 2 to 4 µg/mL; MIC Staphylococcus aureus (GC 4542) (Staphylococcus sp.; strain GC 4542): 2 to 8 µg/mL; MIC Staphylococcus aureus-SMITH (GC 4543) (Staphylococcus sp.; strain GC 4543): 1 to 4 µg/mL; MIC Staphylococcus aureus (GC 4544) (Staphylococcus sp.; strain GC 4544): 4 to 8 µg/mL; MIC Staphylococcus aureus (GC 4545) (Staphylococcus sp.; strain GC 4545): 2 to 8 µg/mL; MIC Coagulase Negative Staphylococcus (GC 4547) (Staphylococcus sp.; strain GC 4547): 2 to 4 µg/mL; MIC Coagulase Negative Staphylococcus (GC 4548) (Staphylococcus sp.; strain GC 4548): 2 to 4 µg/mL; MIC Coagulase Negative Staphylococcus (GC 4549) (Staphylococcus sp.; strain GC 4549): 2 to 4 µg/mL; MIC Coagulase Negative Staphylococcus (GC 4551) (Staphylococcus sp.; strain GC 4551): 2 to 8 µg/mL; MIC Coagulase Negative Staphylococcus (GC 6257) (Staphylococcus sp.; strain GC 6257): 0.5 to 2 µg/mL; MIC Enterococcus avium (GC 4558) (Enterococcus sp.; Enterococcus avium (GC 4558)): 2 to 8 µg/mL; MIC Enterococcus faecalis (GC 4553) (Enterococcus sp.; Enterococcus faecalis (GC 4553)): 4 to 8 µg/mL; MIC Enterococcus faecium (GC 2243) (Enterococcus sp.; Enterococcus faecium (GC 2243)): 2 to 8 µg/mL; MIC Enterococcus faecium (GC 4557) (Enterococcus sp.; Enterococcus faecium (GC 4557)): 1 to 2 µg/mL; MIC Escherichia coli (GC 4560) (Escherichia coli): 2 to 4 µg/mL
CN=C1N(C)CC(C(O)C2NC(=O)C(Cc3ccc(OC4OC(CO)C(OC5OC6COC7(OC6C(O)C5O)C5CC6CC(C5)CC7C6)C(O)C4O)cc3)NC(=O)C(C(C)c3ccccc3)NC(=O)CNC(=O)C(CO)NC(=O)C(C(O)C3CN(C)C(=NC)N3C3OC(CO)C(O)C(O)C3O)NC2=O)N1C (stereo not drawn) [Example 81, Cyclo[glycyl-β-methylphenylalanyl-O-[4-O-[4,6-O-(2-adamantylidene)hexopyranosyl]hexopyranosyl]tyrosyl-3-[1,3-dimethyl-2-(methylimino)imidazolidin-4-yl]seryl-3-[3-hexopyranosyl-1-methyl-2-(methylimino)imidazolidin-4-yl]serylseryl]]	>128	128 (≈ 85.5 µM)	>128	>128	>128	>128	>128	128 (≈ 85.5 µM)	>128	>128	>128	>128	128 (≈ 85.5 µM)	128 (≈ 85.5 µM)	>128	128 (≈ 85.5 µM)	>128	>128	0	0	MIC Escherichia coli (ATCC 25922) (Escherichia coli): >128 µg/mL; MIC Escherichia coli (GC 4559) (Escherichia coli): >128 µg/mL; MIC Escherichia coli (GC 4560) (Escherichia coli): 128 µg/mL (≈ 85.5 µM)

From US6914045B2, “Glycopeptide antibiotics” (Wyeth Holdings Corporation, priority 2001, dated 2005)
